Measurements published in the NIST ThermoML archive (doi:10.1021/je101131x).
± gives the expanded uncertainty stated by the source.

Details: Liquid

Row | vapor or sublimation pressure (323.15 K) [kPa] | vapor or sublimation pressure (333.15 K) [kPa] | vapor or sublimation pressure (343.15 K) [kPa] | vapor or sublimation pressure (353.15 K) [kPa] | SMILES
1 | 16.09 ± 0.61 | 24.01 ± 0.8 | 34.99 ± 1.1 | 49.92 ± 1.4 | CCCOC(C)=O [propyl ethanoate]
2 | 7.567 ± 0.41 | 12.04 ± 0.51 | 18.66 ± 0.67 | 28.2 ± 0.89 | CC(=O)O [acetic acid]
